The values below come from patent US20130046003A1, “PHARMACEUTICAL COMPOSITIONS COMPRISING 4-BROMO-N-(IMIDAZOLIDIN-2-YLIDENE)-1H-BENZIMIDAZOL-5-AMINE FOR TREATING RETINAL DISEASES” (priority 2011, published 2013).

The structures appear in SMILES notation.

The conditions of data set [1]: rats, after an oral dose of brimonidine tartrate; cited from earlier work.
Data set [2] relates to alpha 2-adrenergic receptor. As to conditions: known from prior art; all three alpha-2 receptor subtypes; cited from earlier work.
For data set [3] the following is noted: normal DB rabbits, intravenous route, 10-30 minutes post-dose. As for the experimental part: Rabbits were dosed with 4-bromo-N-(imidazolidin-2-ylidene)-1H-benzimidazol-5-amine through intravenous route. Spatial sweep visual evoked potential (sVEP) acuity was assessed with PowerDiva software version 1.8. Recordings were made bilaterally in conscious animals.

The subject of data set [4] is retina damage caused by blue light. As to conditions: rats, 1 mg/kg IP one hour before 4 hours blue light exposure (6100-6500 lux); OCT at 7 days post exposure; versus saline. As for the experimental part:
Drugs were administered via intraperitoneal injection (IP) at a dose of 1 mg/kg one hour before blue light exposure.
Twenty 4-month old male Sprague-Dawley rats (body weight 470-550 g) were used in this study. The animals were exposed to room light on a 12 hour lighV12 hour dark cycle before the experiment. All animals were dark adapted overnight (16-20 hours) before blue light exposure. Under the intensity of 6100-6500 lux, rats were exposed to blue light for 4 hours. After the blue light, rats were placed in the dark for another 3 days before returning to normal 12 hour light/12 hour dark. Ocular Coherence Tomography (OCT) measurement was performed at 7 days post blue light exposure.

In the case of `Brc1c(N=C2NCCN2)ccc2[nH]cnc12` [4-bromo-N-(imidazolidin-2-ylidene)-1H-benzimidazol-5-amine], the “amount found in urine” value in data set [1] is “trace amounts”. In addition, the “alpha 2-adrenergic receptor agonist activity” value in data set [2] is reported as “potent alpha 2-adrenergic receptor pan agonist, activating all three alpha-2 receptor subtypes”. The “visual acuity (sVEP acuity)” value in data set [3] is reported as “enhanced visual acuity”.
For the compound `Brc1c(N=C2NCCN2)ccc2nccnc12` [brimonidine, (5-bromo-quinoxalin-6-yl)-imidazolidin-2-ylidene-amine, reference compound], the “protection of the retina from damage caused by blue light (retinal thickness measured by OCT)” value in data set [4] was “significantly reduced and protected the retina from the damage caused by blue light”.
